Reference: the supplement of paper PMC11208160

Assay: recombinant barcode read abundance after kanamycin selection (control-corrected) (log10(CPM+1)); higher = more efficient recombination; sequences stand for … in AGTGCAGAGAAAATCGGCCAGTTTTCTCTGCCTGCAGTCCGCATGCCGT…AGATTTATGCAGCGGACTGCCTTTCTCCCAAAGTGATAAACCGGACAGTATCATGGACCGGTTTTCCCGGTAATCCGTATTTGCAAGGTTGGTTTCACT; site = the 11-nt target
Outline: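 IS621 bridge RNA target-binding loops were paired with targets in a pooled library tested in E. coli. After co-electroporation with a donor plasmid, cells were plated in two replicates on chloramphenicol/ampicillin LB agar (control) and on chloramphenicol/ampicillin/kanamycin carrying 0.1 mM IPTG. Barcodes at recombinant junctions were counted as counts per million, averaged and control-corrected to give recombination efficiency. Values are log10(CPM+1).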
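Also: IS621 recombinase and bridge RNA in Escherichia coli cells.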

Sequence | recombinant barcode read abundance (log10)
ATTTCCACTTGGGTTCTAACCTGTTGCCT (site AAGTCCACTAG) | 0.176
ATTTCCACTTGGGTTCTAACCTGTTGCCT (site ATTTCCACTAG) | 0.433
ATTTGCCCTTGGGTTCTAACCTGTTGCCT (site AATTGCCCTAG) | 0.222
ATTTGCCCTTGGGTTCTAACCTGTTGCCT (site ACTTGCCCTAG) | 0.0987
ATTTGCCCTTGGGTTCTAACCTGTTGCCT (site AGTTGCCCTAG) | 0.0335
ATTTGCCCTTGGGTTCTAACCTGTTGCCT (site ATTTGCCCTAG) | 0.122
CAAAACTCTTGGGTTCTAACCTGTTGCTT (site CAAAACTCTAA) | 0.554
CAAAACTCTTGGGTTCTAACCTGTTGCTT (site TCCCCGGCTCC) | 0.0614
CAAAAGGCTTGGGTTCTAACCTGTTGCAG (site CAAAAGGCTCT) | 1.7
CAAAAGGCTTGGGTTCTAACCTGTTGCAG (site CAAAGGGCTCT) | 0.386
CAAAATTCTTGGGTTCTAACCTGTTGCGT (site CAAAATTCTAC) | 0.703
CAAAATTCTTGGGTTCTAACCTGTTGCGT (site CAGAATACTAC) | 0.0891
CAAACAGCTTGGGTTCTAACCTGTTGCCT (site CAAACAACTAG) | 0.0742
CAAACAGCTTGGGTTCTAACCTGTTGCCT (site CAAACACCTAG) | 0.634
CAAACAGCTTGGGTTCTAACCTGTTGCCT (site CAAACAGCTAG) | 0.824
CAAACAGCTTGGGTTCTAACCTGTTGCCT (site CAAACATCTAG) | 0.113
CAAACCGCTTGGGTTCTAACCTGTTGCCT (site CAAACCGCTAG) | 1.14
CAAACCGCTTGGGTTCTAACCTGTTGCCT (site CCAACCGCTAG) | 0.0884

Sequence | recombinant barcode read abundance (log10)
CAAACCGCTTGGGTTCTAACCTGTTGCCT (site CGAACCGCTAG) | 0.356
CAAACCGCTTGGGTTCTAACCTGTTGCCT (site CTAACCGCTAG) | 0.117
CAAACTCCTTGGGTTCTAACCTGTTGCGT (site CAAACTCCTAA) | 0.124
CAAACTCCTTGGGTTCTAACCTGTTGCGT (site CAAACTCCTAC) | 0.951
CAAACTCCTTGGGTTCTAACCTGTTGCGT (site CAAACTCCTAG) | 0.0424
CAAACTCCTTGGGTTCTAACCTGTTGCGT (site CAAACTCCTAT) | 0.0528
CAAAGATCTTGGGTTCTAACCTGTTGCCT (site CAAAGATCTAG) | 0.821
CAAAGATCTTGGGTTCTAACCTGTTGCCT (site CCAAGATCTAG) | 0
CAAAGATCTTGGGTTCTAACCTGTTGCCT (site CGAAGATCTAG) | 0.023
CAAAGATCTTGGGTTCTAACCTGTTGCCT (site CTAAGATCTAG) | 0.165
CAAATAACTTGGGTTCTAACCTGTTGCCT (site CAAATAACTAG) | 0.461
CAAATAACTTGGGTTCTAACCTGTTGCCT (site CAGCTAACTAG) | 0.134
CAAATCCCTTGGGTTCTAACCTGTTGCGT (site ATCGAGTCTTG) | 0.174
CAAATCCCTTGGGTTCTAACCTGTTGCGT (site CAAATCCCTAC) | 2.08
CAACACTCTTGGGTTCTAACCTGTTGCCT (site CAACACTCTAG) | 2.43
CAACACTCTTGGGTTCTAACCTGTTGCCT (site CCACACTCTAG) | 0.452
CAACACTCTTGGGTTCTAACCTGTTGCCT (site CGACACTCTAG) | 0.102
CAACACTCTTGGGTTCTAACCTGTTGCCT (site CTACACTCTAG) | 0.446
